The numbers were not newly measured in patent US20190201327A1 (AMPERSAND BIOPHARMACEUTICALS, INC., priority 2017, published 2019), which cites them from elsewhere.

This series deals with neovascularization.

For the compound `CC1=C(CO)C(=O)O[C@@H]([C@@H](C)[C@H]2CC[C@H]3[C@@H]4C[C@H]5O[C@]56[C@@H](O)C(N=[N+]=[N-])CC(=O)[C@]6(C)[C@H]4CC[C@]23C)C1` (stereo partly shown) [3-azido WFA, 3-azido Withaferin A], the neovascularization in vivo result is “abrogated neovascularization in vivo in a dose dependent manner”.
